The experiment deals with neuronal damage caused by global brain ischemia. The experiment is described as follows: Global cerebral ischemia, bilateral carotid occlusion model in gerbils. It counts as in vivo, Mongolian gerbils. The text has this: The surgical and drug treatment procedures used in the animal model of global brain ischemia are described in Example 24. "Global" ischemia occurs when the entire brain is deprived of oxygenated blood, as occurs during crises such as cardiac arrest, suffocation, or carbon monoxide poisoning. It should be noted that the drug treatment was provided only after the ischemic insult had been fully completed (i.e., after the clamps which were used to temporarily close the carotid arteries had been released again). "Post-trauma" treatment offers a much more realistic, and much more difficult and stringent, challenge than other assays in which test animals are pre-treated with a test drug before an ischemic insult begins.
In one set of in vivo tests, the bilateral carotid occlusion model in gerbils was used to evaluate the abilities of a selected compound, GERI-E7, to protect against neuronal damage caused by global brain ischemia. These tests were performed in the laboratory of Dr. Claude Wasterlain, at the Sepulveda Veterans Administration Medical Center, in Los Angeles, Calif.
Adult male Mongolian gerbils were subjected to reversible bilateral carotid occlusion for 5 minutes, according to standard methods (e.g., Wasterlain et al 1992 and 1996). Each gerbil in a test group was then treated with a test compound at either 2 or 20 mg/kg, dissolved in injectable saline and administered intravenously (IV). Control animals were treated with saline. All treatment and control groups had 10 animals per group. Body temperature was maintained throughout the procedure by a heat lamp and rectal probe.
The gerbils were sacrificed 72 hours after surgery, and their brains were perfusion-fixed with paraformaldehyde. Serial sections of the brain were cut and stained with hematoxylin and eosin, and quantitative cell counts of live and dead neurons were made, using light and fluorescence microscopy, in two different parts of the brain that are highly sensitive to ischemic damage: (i) the subiculum, a zone of transition between the parahippocampus and the hippocampus; and (ii) the CA1 portion of the hippocampus. Statistical analysis was performed on all damage scores (non-paired student t test). All evaluations were made using double-blinded methods.

Turning to `CCC[C@]12CCC(=O)C=C1c1c(cc(OCC3=NCCO3)c(Cl)c1Cl)C2` [GERI-E7, R(+)-2-[[(5,6-dichloro-2,3,9,9a-tetrahydro-3-oxo-9a-propyl-1H-fluoren-7-yl)-oxy]methyl]oxazoline], the “Reduction of dead or dying neurons in the hippocampus” value (CA1 region of hippocampus, IV after 5 min occlusion, 72 h, 2 or 20 mg/kg, on average) is recorded as “about 40%”. Moreover, where the note is “animal model used”, the “Reduction of brain damage caused by global brain ischemia” value is given as “very effective in reducing brain damage”. Moreover, the “Reduction in neuronal damage levels in other brain regions” value (mainly visual semi-quantitative methods) is recorded as “significant reduction in neuronal damage levels in most of the other areas”. For the same compound, for the setting “subiculum and CA1, versus saline control, student t test”, the “Reduction in neuronal damage in both brain regions evaluated” value was “substantial and statistically significant reduction in neuronal damage”. The “Reduction of dead or dying neurons in the subiculum” value (subiculum, IV after 5 min occlusion, 72 h, 2 or 20 mg/kg, on average) is given as “about 30%”.

These data come from US6251898A, “Medical use of fluorenone derivatives for treating and preventing brain and spinal injury” (Questcor Pharmaceuticals, Inc., priority 1999, dated 2001).
